According to paper PMC12584836, “Rubus caesius leaves and stems in antiaging skin care products: antityrosinase, anticollagenase, antimicrobial activity, and transdermal distribution of main phenolic acids” (Pharmaceutical Biology, 2025):
Values after ≈ are worked out from the molar mass of the structure shown.

Tests used:
Assay in all cases: Antibacterial broth microdilution
Format in all cases: cell-based
[1] = tested on: C. acnes ATCC6919; details: Cutibacterium acnes, standard
Experimental: (§1) Brain-heart infusion broth (BHI, Becton Dickinson) supplemented with 10% bovine serum was used for the cultivation of Streptococcus. […] Corynebacterium diphtheriae ZMF was cultured in Brain-heart infusion broth (BHI, Becton Dickinson) supplemented with 10% bovine serum under aerobic conditions at 37 °C for 72 h. Fungal strains-Candida albicans (ATCC10231), Candida albicans (ATCC26790), Candida [NT]200), Candida krusei (ATCC6258), Candida parapsilosis (ATCC22019) were grown in Sabourauda broth (SB, Becton Dickinson), under aerobic conditions at 37 °C for 72 h. For post-incubation viability assessment, BHI blood agar plates, MH agar plates, and Sabouraud agar plates were used. Active cultures were prepared by transferring cells from stock cultures into appropriate broth, as described above. […] Cultures were then diluted in the same broth to achieve an optical density corresponding to approximately 10^6 colony-forming units per milliliter (CFU/mL) for all bacteria strains except C. acnes and C. diphtheriae ZMF. […] [2014]). The minimum inhibitory concentration (MIC) was determined using the broth microdilution method in 96-well plates. Each well was filled with 100 μL of broth. […] These solutions were serially diluted and added to the first well of each row. Serial twofold dilutions were performed by transferring 100 μL from well to well up to the twelfth well, from which 100 μL was discarded. […] Ampicillin served as the reference standard, with concentrations ranging from 128 to 0.0625 μg/mL. Plates were incubated under the appropriate conditions at 37 °C for […] (Clostridium sp. was incubated anaerobically). MIC values were determined by visual observation and defined as the lowest extract concentration that prevented visible microbial growth. To determine the minimum bactericidal concentration (MBC), 100 μL from wells showing no visible growth were plated on agar media. […] The MBC was defined as the lowest concentration of extracts required to completely eliminate viable microorganisms (Hałasa et al. [2014]).

[2] = tested on: B. subtilis ATCC6633; details: Bacillus subtilis, standard
Experimental: as §1

[3] = tested on: S. equinus ATCC15351; details: Streptococcus equinus, standard
Experimental: as §1

[4] = tested on: S. epidermidis ATCC14990; details: Staphylococcus epidermidis, standard
Experimental: as §1

[5] = tested on: Streptococcus β hemolytic group G; details: S. β-hemolytic group G, standard
Experimental: as §1

[6] = tested on: M. catarrhalis PCM2340; details: Moraxella catarrhalis, standard
Experimental: as §1

[7] = tested on: C. diphtheriae; details: Corynebacterium diphtheriae, standard
Experimental: as §1

Work on `CC1(C)S[C@@H]2[C@H](NC(=O)[C@H](N)c3ccccc3)C(=O)N2[C@H]1C(=O)O` [Ampicillin, ampicillin] yielded an MIC [1] of 32 µg/mL (≈ 91.6 µM), an MIC [2] of 0.4 µg/mL (≈ 1.14 µM) and an MIC [3] of 16 µg/mL (≈ 45.8 µM). The MIC [4] was 0.3 µg/mL (≈ 0.859 µM), the MIC [5] was 16 µg/mL (≈ 45.8 µM) and the MIC [6] was 2.5 µg/mL (≈ 7.15 µM). It also gave an MIC [7] of 16 µg/mL (≈ 45.8 µM).
